# Data from patent publication US8546579B2, “Bicycloheteroaryl compounds as P2X7 modulators and uses thereof” (Evotec (US) Inc., priority 2006, dated 2013).
# Molecular target: T1, P2X7 receptor (Homo sapiens, UniProt Q99572)
# T1 construct: host or cells: THP-1 cells differentiated with LPS and IFN-γ
# T1 sequence (Q99572 1-595): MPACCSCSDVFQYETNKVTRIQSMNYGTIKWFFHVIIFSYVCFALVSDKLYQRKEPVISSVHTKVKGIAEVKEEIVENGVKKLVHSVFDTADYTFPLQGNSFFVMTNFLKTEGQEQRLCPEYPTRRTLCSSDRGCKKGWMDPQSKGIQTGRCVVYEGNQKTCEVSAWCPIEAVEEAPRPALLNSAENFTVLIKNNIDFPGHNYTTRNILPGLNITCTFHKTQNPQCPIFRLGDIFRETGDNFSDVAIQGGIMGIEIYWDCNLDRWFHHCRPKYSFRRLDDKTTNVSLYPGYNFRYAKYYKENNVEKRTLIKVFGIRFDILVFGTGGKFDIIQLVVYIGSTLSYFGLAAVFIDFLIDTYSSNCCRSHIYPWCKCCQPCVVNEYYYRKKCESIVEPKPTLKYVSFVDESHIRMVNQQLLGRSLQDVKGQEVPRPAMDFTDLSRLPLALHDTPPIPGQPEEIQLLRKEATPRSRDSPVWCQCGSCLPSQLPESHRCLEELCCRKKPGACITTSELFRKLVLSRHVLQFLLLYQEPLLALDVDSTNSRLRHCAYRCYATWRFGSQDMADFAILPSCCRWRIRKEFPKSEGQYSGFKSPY
# Experiment: IL-1β release assay in differentiated THP-1 cells stimulated with BzATP (Example 9)
# Assay type: cell-based
# Design: inhibition: dose or concentration left out as unconfirmed
# Conditions: 0.1 μM compound; differentiated THP-1 cells, BzATP 250 uM; "*" class symbols; read-out: IL-1β % Inhib. ("*" symbols: at 0.1 μM)
# In short: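 IC50 derived by four-parameter logistic fit of percent inhibition of IL-1β release, measured by ELISA after 45 min stimulation with 250 uM BzATP. Cells: THP-1 differentiated 16 h with 100 ng/mL LPS plus IFN-γ, LPS-primed 2 h, compound added 30 min beforehand.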
row,inhibition at 0.1 µM,Compound
1,26 to 50%,Cc1c(Cl)cccc1C(=O)Nc1cccc2c(=O)n(Cc3ccc(OC(F)(F)F)cc3)ccc12 [Compound 1598]
2,0 to 25%,O=C(CCc1cccc(Cl)c1)Nc1cccc2c(=O)n(Cc3ccc(OC(F)(F)F)cc3)ccc12 [Compound 1610]

# Same assay, conditions: 0.1 μM compound; differentiated THP-1 cells, BzATP 250 uM; '*' class symbols; read-out: IL-1β % Inhib. (asterisk classes, 0.1 μM)
row,inhibition at 0.1 µM,Compound
1,0 to 25%,O=C(Nc1cccc2c(=O)n(CCN3CCOCC3)ccc12)c1cc(Cl)cc(Cl)c1 [Compound 1195]
2,0 to 25%,CN(C)CCn1ccc2c(NC(=O)c3ccc(-c4ccccc4)o3)cccc2c1=O [Compound 1035]
3,0 to 25%,COCCn1ccc2c(NC(=O)CCc3cccc(OC)c3)cccc2c1=O [Compound 1064]
4,0 to 25%,Cc1ccccc1CCC(=O)Nc1cccc2c(=O)n(C)ccc12 [Compound 1057]

# Same assay, conditions: 0.1 μM compound; differentiated THP-1 cells, BzATP 250 uM; symbols * to ****; read-out: IL-1β % Inhib. (asterisk symbols: at 0.1 μM)
row,inhibition at 0.1 µM,Compound
1,0 to 25%,C[C@H]1CC[C@H](C(=O)Nc2cccc3c(=O)n(CC4CCOCC4)ccc23)CC1 [Compound 1395]

# Same assay, conditions: 0.3 μM compound; differentiated THP-1 cells, BzATP 250 uM; '+' class symbols; read-out: IL-1β % Inhib. @ 0.3 μM
row,inhibition at 0.3 µM,Compound
1,0 to 25%,CN(C)CCn1ccc2c(NC(=O)c3cc(Cl)cc(Cl)c3)cccc2c1=O [Compound 1143]
2,0 to 25%,CN(C)CCn1ccc2c(NC(=O)Cc3ccc4c(c3)OCO4)cccc2c1=O [Compound 1163]
3,26 to 50%,CN(C)CCn1ccc2c(NC(=O)C(Cl)c3ccccc3)cccc2c1=O (centres unmarked) [Compound 1017]
4,0 to 25%,CN(C)CCn1ccc2c(NC(=O)Cc3cccc4ccccc34)cccc2c1=O [Compound 1152]
5,≥ 76%,CC(=O)OCCn1ccc2c(NC(=O)Cc3ccc(C(F)(F)F)cc3)cccc2c1=O [Compound 1016]
6,0 to 25%,O=C(Nc1cccc2c(=O)n(CCN3CCOCC3)ccc12)c1cc(Cl)ccc1Cl [Compound 1190]
7,0 to 25%,Cc1ccc(C)c(CC(=O)Nc2cccc3c(=O)n(CCN4CCOCC4)ccc23)c1 [Compound 1042]
8,0 to 25%,Cc1cccc(CCC(=O)Nc2cccc3c(=O)n(CC4CCOCC4)ccc23)c1 [Compound 1130]
9,0 to 25%,Cc1ccc(C)c(C(=O)Nc2cccc3c(=O)n(CC4CCOCC4)ccc23)c1 [Compound 1088]
10,0 to 25%,O=C(CCc1ccccc1Cl)Nc1cccc2c(=O)n(Cc3cccnc3)ccc12 [Compound 1079]
11,0 to 25%,COc1cccc(CCC(=O)Nc2cccc3c(=O)n(Cc4cccnc4)ccc23)c1 [Compound 1075]
12,0 to 25%,COc1ccc(C(=O)Nc2cccc3c(=O)n(CC4CCOCC4)ccc23)cc1C [Compound 1133]
13,0 to 25%,COc1ccc(CC(=O)Nc2cccc3c(=O)n(CC4CCOCC4)ccc23)cc1 [Compound 1105]
14,≥ 76%,CC(=O)OCCn1ccc2c(NC(=O)CC3(O)CCCCCC3)cccc2c1=O [Compound 1015]
15,0 to 25%,CC(=O)OCCn1ccc2c(NC(=O)CC3CCN(C(=O)OC(C)(C)C)CC3)cccc2c1=O [Compound 1011]
16,0 to 25%,Cc1cc(C)c(CC(=O)Nc2cccc3c(=O)n(Cc4cccnc4)ccc23)c(C)c1 [Compound 1076]
17,0 to 25%,COc1ccc(CC(=O)Nc2cccc3c(=O)n(CCN(C)C)ccc23)c(OC)c1 [Compound 1022]
18,0 to 25%,Cc1cccc(C(=O)Nc2cccc3c(=O)n(CCN(C)C)ccc23)c1 [Compound 1145]

# Same assay, conditions: 0.3 μM compound; differentiated THP-1 cells, BzATP 250 uM; symbols + to ++++; read-out: IL-1β % Inhib. @ 0.3 μM
row,Compound,inhibition at 0.3 µM
1,Cc1c(Cl)cccc1C(=O)Nc1cccc2c(=O)n(CCN3CCOCC3)ccc12 [Compound 1227],0 to 25%
2,Cc1cccc(CC(=O)Nc2cccc3c(=O)n(CC(C)(C)C)ccc23)c1 [Compound 1259],0 to 25%
3,O=C(Nc1cccc2c(=O)n(CCN3CCOCC3)ccc12)c1cccc2c1OCCO2 [Compound 1224],0 to 25%
4,Cc1cc(C(=O)Nc2cccc3c(=O)n(CCN4CCOCC4)ccc23)ccc1F [Compound 1231],0 to 25%
5,CC(=O)OCCn1ccc2c(NC(=O)CCc3cc(C(F)(F)F)ccc3C(F)(F)F)cccc2c1=O [Compound 1374],≥ 76%
6,COCCn1ccc2c(NC(=O)[C@@]34C[C@@H]5C[C@@H](C[C@@H]3C5)C4)cccc2c1=O [Compound 1327],0 to 25%
7,COCCn1ccc2c(NC(=O)Cc3ccc(OC)c(OC)c3)cccc2c1=O [Compound 1314],0 to 25%
8,COc1ccc(CC(=O)Nc2cccc3c(=O)n(C)ccc23)cc1 [Compound 1299],0 to 25%
9,COc1ccc(CCC(=O)Nc2cccc3c(=O)n(C)ccc23)cc1 [Compound 1293],0 to 25%
10,COc1cccc(CC(=O)Nc2cccc3c(=O)n(CCN4CCOCC4)ccc23)c1 [Compound 1209],0 to 25%
11,COCCn1ccc2c(NC(=O)c3ccc(C)c(Cl)c3)cccc2c1=O [Compound 1324],26 to 50%
12,COCCn1ccc2c(NC(=O)c3ccc(Cl)cc3C)cccc2c1=O [Compound 1325],26 to 50%
13,CC(C(=O)Nc1cccc2c(=O)n(CCN3CCOCC3)ccc12)c1ccccc1 (centres unmarked) [Compound 1200],0 to 25%
14,COCCn1ccc2c(NC(=O)c3cccc(Cl)c3C)cccc2c1=O [Compound 1330],0 to 25%

# The remaining lines, values ahead:
row,inhibition at 0.3 µM,Compound
1,≥ 76%,CC(=O)OCCn1ccc2c(NC(=O)CC3CCCCCC3)cccc2c1=O [Compound 1375]
2,0 to 25%,CC(=O)OCCn1ccc2c(NC(=O)Cc3ccc(S(C)(=O)=O)cc3)cccc2c1=O [Compound 1384]
3,51 to 75%,CN(C)CCn1ccc2c(NC(=O)Cc3ccc(Cl)cc3Cl)cccc2c1=O [Compound 1387]
4,≥ 76%,CN(C)CCn1ccc2c(NC(=O)Cc3ccc(Cl)c(C(F)(F)F)c3)cccc2c1=O [Compound 1385]
5,≥ 76%,CN(C)CCn1ccc2c(NC(=O)CC3(O)CC(C)(C)CC(C)(C)C3)cccc2c1=O [Compound 1390]

# Same assay, conditions: THP-1; read-out: IL-1β % Inhib.
row,inhibition,Compound
1,0 to 25%,O=C(Nc1cccc2c(=O)n(Cc3cccnc3)ccc12)c1cc(Cl)cc(Cl)c1 [Compound 1443]
2,26 to 50%,O=C(Cc1ccccc1F)Nc1cccc2c(=O)n(Cc3cccnc3)ccc12 [Compound 1449]
3,0 to 25%,Cc1ccc(CC(=O)Nc2cccc3c(=O)n(CCCN4CCCC4=O)ccc23)cc1 [Compound 1524]
4,0 to 25%,COc1cc(OC)cc(C(=O)Nc2cccc3c(=O)n(CCCN4CCCC4=O)ccc23)c1 [Compound 1512]
5,0 to 25%,O=C(Nc1cccc2c(=O)n(Cc3ccc(OC(F)(F)F)cc3)ccc12)c1cc2ccccc2o1 [Compound 1587]
6,0 to 25%,O=C(Cc1cccc2ccccc12)Nc1cccc2c(=O)n(Cc3ccc(OC(F)(F)F)cc3)ccc12 [Compound 1573]
7,0 to 25%,CC(C)(C)c1ccc(C(=O)Nc2cccc3c(=O)n(Cc4cccnc4)ccc23)cc1 [Compound 1446]
8,0 to 25%,COCCn1ccc2c(NC(=O)Cc3cccc(OC)c3)cccc2c1=O [Compound 1439]
9,0 to 25%,Cc1ccccc1CCC(=O)Nc1cccc2c(=O)n(CC3CCN(C)CC3)ccc12 [Compound 1457]
10,0 to 25%,COc1ccccc1CC(=O)Nc1cccc2c(=O)n(CCN(C)C)ccc12 [Compound 1409]
11,0 to 25%,COc1ccc(OC)c(CC(=O)Nc2cccc3c(=O)n(Cc4ccc(OC(F)(F)F)cc4)ccc23)c1 [Compound 1578]
12,0 to 25%,COc1ccc(CC(=O)Nc2cccc3c(=O)n(CCCN4CCCC4=O)ccc23)cc1OC [Compound 1520]
13,0 to 25%,CCOc1ccc(C(=O)Nc2cccc3c(=O)n(CCOC)ccc23)cc1 [Compound 1429]
14,0 to 25%,COc1ccc(C(=O)Nc2cccc3c(=O)n(CCCN4CCCC4=O)ccc23)cc1Cl [Compound 1500]
15,0 to 25%,O=C(Nc1cccc2c(=O)n(Cc3ccc(OC(F)(F)F)cc3)ccc12)c1cccc2c1OCCO2 [Compound 1595]
16,0 to 25%,Cc1ccc(C)c(CC(=O)Nc2cccc3c(=O)n(CCCN4CCCC4=O)ccc23)c1 [Compound 1499]
17,0 to 25%,COc1cccc(CCC(=O)Nc2cccc3c(=O)n(Cc4ccc(OC(F)(F)F)cc4)ccc23)c1 [Compound 1552]
18,0 to 25%,Cc1ccc(C)c(C(=O)Nc2cccc3c(=O)n(CC4CCN(C)CC4)ccc23)c1 [Compound 1463]
19,0 to 25%,Cc1cccc(C(=O)Nc2cccc3c(=O)n(CCCN4CCCC4=O)ccc23)c1Cl [Compound 1544]

# Same assay, conditions: THP-1 cells, BzATP-stimulated IL-1β release, four parameter logistic fit
row,Compound,IC50
1,CN(C)CCn1ccc2c(NC(=O)C(Cl)c3ccccc3)cccc2c1=O (centres unmarked) [Compound 1017],367 nM
2,CC(=O)OCCn1ccc2c(NC(=O)CCc3cc(C(F)(F)F)ccc3C(F)(F)F)cccc2c1=O [Compound 1374],40.6 nM
3,CC(=O)OCCn1ccc2c(NC(=O)Cc3ccc(C(F)(F)F)cc3)cccc2c1=O [Compound 1016],338 nM
4,CC(=O)OCCn1ccc2c(NC(=O)CC3(O)CCCCCC3)cccc2c1=O [Compound 1015],171 nM
5,CC(=O)OCCn1ccc2c(NC(=O)CC3CCN(C(=O)OC(C)(C)C)CC3)cccc2c1=O [Compound 1011],> 1000 nM
6,COc1ccc(CC(=O)Nc2cccc3c(=O)n(CCN(C)C)ccc23)c(OC)c1 [Compound 1022],> 1000 nM

# More lines, now with the values ahead:
row,IC50,Compound
1,86.7 nM,CC(=O)OCCn1ccc2c(NC(=O)CC3CCCCCC3)cccc2c1=O [Compound 1375]
2,> 1000 nM,CC(=O)OCCn1ccc2c(NC(=O)Cc3ccc(S(C)(=O)=O)cc3)cccc2c1=O [Compound 1384]
3,146 nM,CN(C)CCn1ccc2c(NC(=O)Cc3ccc(Cl)cc3Cl)cccc2c1=O [Compound 1387]
4,152 nM,CN(C)CCn1ccc2c(NC(=O)Cc3ccc(Cl)c(C(F)(F)F)c3)cccc2c1=O [Compound 1385]
5,79.3 nM,CN(C)CCn1ccc2c(NC(=O)CC3(O)CC(C)(C)CC(C)(C)C3)cccc2c1=O [Compound 1390]
